As a reminder, the MBC is the lowest tested concentration that kills the bacteria rather than only halting them. Usually MIC stands for the least concentration at which growth counts as inhibited.

Molecules are shown by their SMILES. Converted amounts (≈) assume the structure as drawn. Non-standard residues stand in square brackets, D forms with d. Residues, ends and D or L forms follow the SMILES beside them. Cha = N[C@@H](CC1CCCCC1)C(=O)O

Data on two compounds can be found in paper PMC7557582, “Broad-Spectrum Antimicrobial Activity and Improved Stability of a D-Amino Acid Enantiomer of DMPC-10A, the Designed Derivative of Dermaseptin Truncates” (Antibiotics, 2020).

The test system of data set [1] is S. aureus (NCTC 10788). It counts as cell-based, Staphylococcus aureus.
Procedure: (§6) Gram-positive bacteria Staphylococcus aureus (NCTC 10788) and Enterococcus faecalis (NCTC 12697) and Gram-negative bacteria Escherichia coli (NCTC 10418), Pseudomonas aeruginosa (ATCC 27853), and Klebsiella pneumoniae (ATCC 43816) were tested. […] All the bacterial strains were inoculated in Mueller Hinton broth (MHB), pH 7.4 (Oxiod, Basingstoke, UK) at 37 °C. Then, the log-phase bacteria were mixed with the peptide at the concentrations from 512 to 1 µM in two-fold dilution, in a 96 well-plate. The wells contained sterilized MHB and bacteria cultures were employed as a blank and growth control, respectively.
Data set [2] has as its system MRSA (NCTC 12493). It counts as cell-based, methicillin-resistant S. aureus.
Procedure: as §6
The test system of data set [3] is E. faecalis (NCTC 12697). It counts as cell-based, Enterococcus faecalis.
Procedure: as §6
Data set [4] has as its system E. coli (NCTC 10418). Format: cell-based, Escherichia coli. The following applies: NCTC 10418, pH 7.4.
Procedure: as §6
The subject of data set [5] is K. pneumoniae (ATCC 43816). It counts as cell-based, Klebsiella pneumoniae. The following applies: ATCC 43816, pH 7.4.
Procedure: as §6
In data set [6] the test system is K. pneumoniae (ATCC BAA 1705). It counts as cell-based, Klebsiella pneumoniae. The following applies: ATCC BAA 1705, pH 7.4.
Procedure: as §6
Data set [7] deals with K. pneumoniae (ATCC BAA 2342). It counts as cell-based, Klebsiella pneumoniae. The following applies: ATCC BAA 2342, pH 7.4.
Procedure: as §6
Data set [8] has as its system P. aeruginosa (ATCC 27853). Format: cell-based, Pseudomonas aeruginosa. The settings on record: ATCC 27853, pH 7.4.
Procedure: as §6
Data set [9] relates to S. aureus (NCTC 10788). Format: cell-based, Staphylococcus aureus. How it is done:
(§1) Furthermore, the antimicrobial activity in the presence of MgCl2, CaCl2, NaCl and 10% fetal bovine serum (FBS) was investigated. In detail, 2 and 5 mM of MgCl2 and CaCl2, and 150 and 375 mM NaCl, were applied, respectively. The supplements were added into the medium that was used for diluting the bacteria suspension. Then, the diluted bacteria culture was mixed with the peptide stock solution in the 96-well plate, as mentioned above. The assay was performed three times and each assay contained 5 replicates.
This is another data set of the same source.

The test system of data set [10] is E. coli (NCTC 10418). Format: cell-based, Escherichia coli. The procedure:
as §1

Data set [11] deals with T1, trypsin (Bos taurus, UniProt P00760).
T1 construct: gene PRSS1
T1 sequence (P00760 24-246): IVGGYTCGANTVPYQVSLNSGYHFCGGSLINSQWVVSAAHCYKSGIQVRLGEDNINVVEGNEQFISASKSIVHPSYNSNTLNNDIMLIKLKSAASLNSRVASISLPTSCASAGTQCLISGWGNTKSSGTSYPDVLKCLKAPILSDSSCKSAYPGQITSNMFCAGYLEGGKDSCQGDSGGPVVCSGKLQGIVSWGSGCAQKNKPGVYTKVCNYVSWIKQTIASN
Kind of data set: Enzyme stability assay, trypsin. It counts as in vitro ADME. The following applies: peptide in PBS, peptide:trypsin 100:1 (m/m), time points 0-120 min, stopped with 10% TFA, RP-HPLC peak area, three replicates. The procedure: (§2) The peptides were dissolved in phosphate-buffered saline (PBS) and mixed with the respective enzyme (trypsin and chymotrypsin) with a ratio of 100:1 (m/m). Then, 135 µl of the reaction solution was transferred into a new vial. The hydrolysis reaction was immediately terminated by adding 15 µl of 10% TFA at the different time points (0, 5, 10, 20, 40, 60, 120 min). The mixture was then analyzed by reverse-phase HPLC and respective peak areas were calculated to obtain the residual amount of peptides at different times.

The target of data set [12] is chymotrypsin (Bos taurus, UniProt P00766). Nature of the data set: Enzyme stability assay, chymotrypsin. Format: in vitro ADME. The settings on record: peptide in PBS, peptide:chymotrypsin 100:1 (m/m). The procedure:
as §2

The test system of data set [13] is S. aureus (NCTC 10788) biofilm. Kind of data set: Inhibition of biofilm formation (crystal violet). Format: cell-based, Staphylococcus aureus. The settings on record: 37 °C 24–48 h, crystal violet 595 nm. The procedure:
(§3) The antibiofilm activity of synthetic peptides was evaluated via the inhibitory effect against the formation of biofilm and the eradication of mature biofilm, which were performed as the previously study with minor modifications. […] Then, the solution in each well was discarded. The biofilm was washed with PBS. Finally, the biofilm in each well was stained by 100 μL of 0.1% crystal violet solution and further dissolved by 30% acetic acid. The absorbance of dissolved crystal violet in each well was recorded at 595 nm. For the eradication of mature biofilm, biofilm was formed with incubation at 37 °C for 24–48 h. Then, the plate was washed with PBS and filled with the peptides which were prepared in the fresh medium. After treatment for 24 h at 37 °C, the plate was stained as mentioned above. Both assays were repeated three times, with 5 replicates each time.

Data set [14] has as its system MRSA (NCTC 12493) biofilm. Kind of data set: Inhibition of biofilm formation (crystal violet). The following applies: 37 °C 24–48 h, crystal violet 595 nm. It counts as cell-based, methicillin-resistant S. aureus. How it is done: as §3
Data set [15] concerns K. pneumoniae (ATCC 43816) biofilm. Nature of the data set: Inhibition of biofilm formation (crystal violet). It counts as cell-based, Klebsiella pneumoniae. The following applies: 37 °C 24–48 h, crystal violet 595 nm. How it is done: as §3
Data set [16] deals with S. aureus (NCTC 10788) biofilm. Nature of the data set: Eradication of mature biofilm (crystal violet). Format: cell-based, Staphylococcus aureus. The following applies: high concentrations ranging from 32 to 128 µM, 24 h treatment at 37 °C. How it is done: as §3
Data set [17] relates to MRSA (NCTC 12493) biofilm. Kind of data set: Eradication of mature biofilm (crystal violet). Format: cell-based, methicillin-resistant S. aureus. The settings on record: high concentrations ranging from 32 to 128 µM, 24 h treatment at 37 °C. How it is done:
as §3

The subject of data set [18] is K. pneumoniae (ATCC 43816) biofilm. Nature of the data set: Eradication of mature biofilm (crystal violet). The following applies: at 64 µM and 128 µM, compared with S. aureus and MRSA. It counts as cell-based, Klebsiella pneumoniae. How it is done:
as §3

In data set [19] the test system is K. pneumoniae (ATCC BAA 1705). Kind of data set: Checkerboard synergy assay. Format: cell-based, Klebsiella pneumoniae. The procedure: (§4) The bacteria culture was prepared and diluted as performed in Section 4.4. Then, the bacteria dilution was mixed with a different combination of DMPC-10B and the antibiotics in the 96-well plate. The wells only contained individual peptides or antibiotics were applied as reference controls. Similarly, the turbidity of each well in the plate was measured at OD 550 nm, after incubation at 37 °C for 24 h. The fractional inhibitory concentration index (FICI) of each combination was defined as follows: FICI=MIC of DMPC-10B in combination/MIC of DMPC-10B alone+MIC of antibiotic in combination/MIC of antibiotic alone
(§5) The profile of the combination was interpreted as synergistic, additive, and antagonistic for FICI ≤ 0.5, 0.5 < FICI ≤ 4.0, and FICI > 4.0, respectively.

Data set [20] has as its system K. pneumoniae (ATCC BAA 2342). Kind of data set: Checkerboard synergy assay. Format: cell-based, Klebsiella pneumoniae. The procedure:
as §4, §5

In data set [21] the test system is Galleria mellonella larvae infected with K. pneumoniae (ATCC 43816). Kind of data set: Galleria mellonella larva infection model. The following applies: 20 mg/kg injected 1 h after infection, 5 days, 10 larvae per group. Format: in vivo. How it is done:
The assessment of in vivo antimicrobial activity of DMPC-10B was performed using the larva of Galleria mellonella, as in the previous study, with minor modifications. The infection model was constructed by injecting 10 μL of MRSA (NCTC 12493) and K. pneumoniae (ATCC 43816) bacteria suspension (5 × 10^7 CFU/mL) which was prepared in PBS. After 1 h, each infected larva was further administered an injection of 10 μL of peptide solution at different doses of 5, 10, 20 mg/kg. The infected larva that was administered 10 μL of PBS was employed as a negative control, while 20 mg/kg of gentamicin was used as a positive control. Each group contained 10 larvae and all larvae were inspected every 24 h for 5 days (the first day was 12 h).

Data set [22] relates to healthy Galleria mellonella larvae. Kind of data set: Toxicity to larvae without infection. It counts as in vivo. The following applies: highest dose (20 mg/kg), 5 days.

`CN[C@H](CC(C)C)C(=O)N[C@H]1C(=O)N[C@@H](CC(N)=O)C(=O)N[C@H]2C(=O)N[C@H]3C(=O)N[C@H](C(=O)N[C@H](C(=O)O)c4cc(O)cc(O)c4-c4cc3ccc4O)[C@H](O)c3ccc(c(Cl)c3)Oc3cc2cc(c3O[C@@H]2O[C@H](CO)[C@@H](O)[C@H](O)[C@H]2O[C@H]2C[C@](C)(N)[C@H](O)[C@H](C)O2)Oc2ccc(cc2Cl)[C@H]1O` [Vancomycin, reference compound]: the MIC of antibiotic in [1] (S. aureus (NCTC 10788), broth-dilution, MHB pH 7.4, 37 °C, positive control) is listed as 0.125/0.08 µg/mL; in [2] (MRSA (NCTC 12493), broth-dilution, MHB pH 7.4, 37 °C, positive control), 0.125/0.08 µg/mL; in [3] (E. faecalis (NCTC 12697), broth-dilution, MHB pH 7.4, 37 °C, positive control), 1/0.69 µg/mL.

With `CC(C)C[C@@H](NC(=O)[C@H](C)N)C(=O)N[C@@H](Cc1c[nH]c2ccccc12)C(=O)N[C@H](CCCCN)C(=O)N[C@H](CCCCN)C(=O)N[C@H](CC(C)C)C(=O)N[C@H](CC(C)C)C(=O)N[C@H](CCCCN)C(=O)N[C@H](CCCCN)C(=O)N[C@@H](CC1CCCCC1)C(N)=O` [DMPC-10B] (H-A[dL]W[dK][dK][dL][dL][dK][dK][Cha]-NH2; N-terminus assumed), the MBC in data set [1] (NCTC 10788, pH 7.4) was 16 µM (≈ 20.5 µg/mL); in data set [2] (NCTC 12493, pH 7.4) it was 8 µM (≈ 10.2 µg/mL); in [3] (NCTC 12697, pH 7.4), 64 µM (≈ 81.9 µg/mL); in data set [4], 4 µM (≈ 5.12 µg/mL); in [5] it was 8 µM (≈ 10.2 µg/mL); in [6], 32 µM (≈ 41 µg/mL). The minimal bactericidal concentration (MBC) in [7] was 16 µM (≈ 20.5 µg/mL); in [8] it was 32 µM (≈ 41 µg/mL). For the same compound, the minimum inhibitory concentration (MIC) in data set [1] (NCTC 10788, pH 7.4) was determined as 4 µM (≈ 5.12 µg/mL); in data set [2] (NCTC 12493, pH 7.4), 4 µM (≈ 5.12 µg/mL); in data set [3] (NCTC 12697, pH 7.4), 64 µM (≈ 81.9 µg/mL); in [4] it was 2 µM (≈ 2.56 µg/mL); in data set [5], 8 µM (≈ 10.2 µg/mL); in data set [6], 32 µM (≈ 41 µg/mL). Moreover, the MIC in [7] was 16 µM (≈ 20.5 µg/mL); in [8] it was 4 µM (≈ 5.12 µg/mL). For the same compound, the figures for the “MIC with CaCl2 5 mM” value in [9] and in data set [10] were 64 µM and 32 µM, respectively. Moreover, the “MIC with FBS 10%” value in data set [9] amounted to 8 µM; in [10], 4 µM. The “MIC with MgCl2 5 mM” value in [9] was 64 µM; in [10], 32 µM. The “MIC with NaCl 150 mM” value turned out to be 64 µM in data set [9] and 16 µM in [10]. The entries for the “MIC with NaCl 375 mM” value in [9] and in [10] were 128 µM and 32 µM, respectively. Further, the “MIC, no additive” value in data set [9] was 4 µM (≈ 5.12 µg/mL); in [10], 2 µM (≈ 2.56 µg/mL). Besides, the “time within which trypsin could not degrade the peptide completely” value in [11] is recorded as more than 2 h. Besides, the “stability to hydrolysis by chymotrypsin” value in [12] (120 min, RP-HPLC peak area, three replicates) is reported as “exhibited resistance to the hydrolysis”. In [12] (RP-HPLC), the “time within which L-Trp site was not cleaved by chymotrypsin” value is more than 2 h. For the same compound, the “inhibition of biofilm formation” value in [13] is given as “effectively inhibited”; in [14] it was “effectively inhibited”; in data set [15], “less potent”. The biofilm eradication effect entry in [16] is on record as “around 50%”; in [17], “around 50%”; in data set [18], “more potent effects”. The results for the “combined MIC of DMPC-10B with norfloxacin” value in data set [19] (first value) and in data set [20] (first value) were 32/32 and 16/16, respectively. Besides, the “individual MIC of DMPC-10B (norfloxacin checkerboard)” value in data set [19] (second value) was 32/32; in data set [20] (second value), 16/16. For the same compound, the “survival of infected larvae” value in data set [21] is recorded as “around 70%”. Also, the “death of healthy larvae” value in data set [22] is on record as “did not induce any death”.
